The source of these data is patent US6903130B1, “Pyrrolidineacetamide derivative alone or in combination for treatment of cns disorders” (UCB S.A., priority 1999, dated 2005).

Series [1] concerns rats in which hyperactivity has been induced using the DEX-CDP mixture. As to the kind of experiment: Y maze test, hyperactivity induced by DEX-CDP mixture (Example 1). The class given is in vivo, rat. Particulars: for Number of arms visited: median; for Effect on hyperactivity induced by DEX-CDP (in words): hyperactive rats; for Effect on hyperactivity induced by DEX-CDP (in words) / Effect of the compound per se on activity of non-hyperactive control (in words): i.p.; for Effect of the compound per se on activity of non-hyperactive control (in words): non-hyperactive control rats. An excerpt: An increase in motor activity is a frequent symptom of manic disorders and as a consequence, it is often used as a model of mania in laboratory animals. […] Further, not all activity tests are suitable for observing reproducible hyperactivity.
Hyperactivity induced in rodents tested in a symmetrical v maze by a mixture of dexamphetamine and chlordiazepoxide (DEX-CDP) has been used by a number of researchers to study the effect of lithium (Cox C. et al., “Lithium attenuates “manic” activity in rats” Nature (1971), vol. 232 p 336-338—Vale A. L. and Ratcliffe F., “Effect of lithium administration on rat brain 5-hydroxyindole levels in a possible animal model of mania” Psychopharamacol. (1987), vol.91 p 352-355), or more recently the effect of the antiepiteptic “Valproate” (Cao B. J. and Peng N. A., “Magnesium valproate attenuates hyperactivity induced by dexamphetamine-chlordiazepoxide mixture in rodents” Eur. J. Pharmacol. (1993), vol. 237, p 177-181).
Lithium and valproate were also tested and used as reference compounds.
The animals used were male Sprague-Dawley rats (origin: OFA, IFFA CREDO, Belgium) weighing between 210 and 290 grams. They were placed in stainless steel cages in groups of 8. The day prior to the experiment, they were placed in macrolon cages (4 animals per cage: 38×27×15 centimeters (cm)) with the floor covered with sawdust. The cages were placed in an animal holding chamber provided with air conditioning, illuminated from 0600 hrs to 1800 hrs. Food and water were available “ad libitum”.
The apparatus used was a Y maze (each arm being 40 cm long and 15 cm wide with 35 cm walls) constructed from grey Plexiglass, located in a faintly illuminated room (Less than 5 Lux at ground level) and used to measure the rats' activity. The activity was estimated by recording the number of entries into the arms of the maze over a five-minute period. A video camera was positioned at a height of one meter above the apparatus and connected to a monitor located in an adjacent room in which an experimenter counted the number of entries into the arms.
The injection of different compounds into the rats was performed under the following conditions. 12.5 mg/kg of chlordiazepoxide and 1.18 mg/kg of D-amphetamine sulfate were dissolved in a saline solution (0.9%) and administered simultaneously by subcutaneous injection 35 minutes before the test in a volume of 1 ml/kg. 17 and 54 mg/kg of levetiracetam were dissolved in a saline aqueous solution (0.9%) and injected intraperitoneally 30 minutes before the test (table 4). 50, 100 and 200 mg/kg of sodium valproate were dissolved in an aqueous saline solution (0.9%) and injected intraperitoneally 15 minutes before the test (table 2). 2 and 4 milliequivalents (meq) of […] of lithium chloride were dissolved in a saline solution (0.9%) and injected intraperitoneally 215 minutes before the test (table 1). The test drugs were injected in a volume of 5 ml/kg.
The effects of the different drugs were studied separately. In each experiment, the animals were placed in different groups ([…]) in a random fashion. During the test, each rat was placed in the center of the apparatus and the number of visits into the arms was recorded as an activity index.
For the results to be properly statistically analyzed, they were expressed as median with the first and third quartile. General comparisons of the statistics were carried out using a Kruskal-Wallis test for the controls and the effect of the compound per se. This test was also used to compare the effect of the (DEX-CDP) mixture, and the effect of the compounds against the hyperactivity induced by the (DEX-CDP) mixture.

Series [2] concerns 55 different binding sites including different receptor systems, reuptake sites, second messenger systems and channel proteins. Particulars: in vitro; cited from earlier work.
Series [3] in a line: Plasma and brain levels after oral dosing in sound-sensitive mice. Particulars: male, genetically sound-sensitive, derived from a DBA strain, mouse, brain, po, 166.2 mg/kg. On the procedure: Male genetically sound-sensitive mice (17-30 g; N=10), derived from a DBA strain originally selected by Dr Lehmann of the Laboratory of Acoustic Physiology (Paris) and bred in the UCB Pharma Sector husbandry unit since 1978, were submitted to the induction of audiogenic seizures. Levetiracetam (5.4 mg/kg) and sodium valproate (166.2 mg/kg) were administered orally, alone or in combination, 60 minutes before the induction of audiogenic seizures. For testing audiogenic seizure, the mice were placed in the cages, one mouse per cage, in the sound-attenuated chamber. After a period of habituation of 30 seconds, the acoustic stimulus (90 dB, 10-20 kHz) was delivered for 30 seconds via the loud speakers. During this interval, the mice were observed and the presence of the 3 phases of the seizure activity, namely wild running, clonic and tonic convulsions, was recorded.
In all animals, blood samples were collected immediately after the seizure test (I h after dosing) by cardiac puncture under light carbon dioxide anesthesia, into heparinised microtubes. […] Levetiracetam was measured in plasma and brain samples by validated gas chromatography assay with mass detection. With sodium valproate, fluorescence polarization immunoassays were used.
The mean value plus standard deviation was calculated for plasma and brain concentrations of valproate and levetiracetam, and for the brain/plasma ratio. […]

Each structure is given as a SMILES string.

For the compound `CC[C@@H](C(N)=O)N1CCCC1=O` [Levetiracetam, (S)-(−)α-ethyl-2-oxo-1-pyrrolidineacetamide], the “Number of arms visited” value in series [1] (DEX-CDP mixture + levetiracetam 17 mg/kg i.p.) is reported as 36; in series [1] (DEX-CDP mixture + levetiracetam 54 mg/kg i.p.), 26; in series [1] (levetiracetam 17 mg/kg i.p. alone, no mixture) it was 31; in series [1] (levetiracetam 54 mg/kg i.p. alone, no mixture), 28. Further, the “Effect on hyperactivity induced by DEX-CDP (in words)” value in series [1] is “significantly counteracted the hyperactivity induced by DEX-CDP at a dose of 54 mg/kg”; in series [1] (listed as levetiracetam) it was “normalization to the activity level of the non-hyperactive control rats”. Moreover, the “Effect of the compound per se on activity of non-hyperactive control (in words)” value in series [1] is listed as “only a slight hyperactivity at a dose of 17 mg/kg”. Besides, the “displacement of ligands specific for 55 different binding sites” value in series [2] was “not revealed any significant displacement”.

Consider `CCCC(CCC)C(=O)[O-].[Na+]` [Valproate, sodium valproate], for which the “Number of arms visited” value in series [1] (DEX-CDP mixture + sodium valproate 50 mg/kg i.p.) was found to be 38; in series [1] (DEX-CDP mixture + sodium valproate 100 mg/kg i.p.), 39; in series [1] (DEX-CDP mixture + sodium valproate 200 mg/kg i.p.), 20; in series [1] (sodium valproate 50 mg/kg i.p. alone, no mixture), 28; in series [1] (sodium valproate 100 mg/kg i.p. alone, no mixture), 34; in series [1] (sodium valproate 200 mg/kg i.p. alone, no mixture), 40. For the same compound, the “Effect on hyperactivity induced by DEX-CDP (in words)” value in series [1] is on record as “significantly counteracted hyperactivity at a dose of 200 mg/kg”. Further, the “Effect of the compound per se on activity of non-hyperactive control (in words)” value in series [1] is “strong dose dependent hyperactivity”. Moreover, in series [3], the Kp at 1 h was 0.13 ± 0.02.
